Measured values from PMC10041525, “New Dual Inhibitors of Bacterial Topoisomerases with Broad-Spectrum Antibacterial Activity and In Vivo Efficacy against Vancomycin-Intermediate Staphylococcus aureus” (Journal of Medicinal Chemistry, 2023).
≈ marks a conversion by molar mass, not a printed value. Read-outs that look alike come from different tables or passages of the source.

Test system: 100 A. baumannii strains (50 MDR, 50 non-MDR)
Assay: MIC broth microdilution at IHMA Europe, panel of 100 strains
Format: cell-based
Conditions: Acinetobacter baumannii, read-out: MIC

`Cc1[nH]c(C(=O)Nc2nc3c(N4[C@@H]5CC[C@H]4COC5)cc(C(=O)O)cc3s2)c(Cl)c1Cl` [7h, 4-((1R,5S)-3-Oxa-8-azabicyclo[3.2.1]octan-8-yl)-2-(3,4-dichloro-5-methyl-1H-pyrrole-2-carboxamido)benzo[d]thiazole-6-carboxylic Acid] was tested, and the MIC (A. baumannii IHMA 1769393, Lithuania 2018, Non-MDR) was 2 µg/mL (≈ 4.15 µM), the MIC (A. baumannii IHMA 1769782, Israel 2018, MDR) was 2 µg/mL (≈ 4.15 µM) and the MIC (A. baumannii IHMA 1769910, Israel 2018, Non-MDR) was 4 µg/mL (≈ 8.31 µM). For the same compound, the MIC (A. baumannii IHMA 1790317, Czech Republic 2018, Non-MDR) was 2 µg/mL (≈ 4.15 µM), the MIC (A. baumannii IHMA 1790916, Romania 2018, Non-MDR) was 1 µg/mL (≈ 2.08 µM) and the MIC (A. baumannii IHMA 1791877, Israel 2018, MDR) was 2 µg/mL (≈ 4.15 µM). It also gave an MIC (A. baumannii IHMA 1792961, Jordan 2018, MDR) of 2 µg/mL (≈ 4.15 µM), an MIC (A. baumannii IHMA 1795669, Tunisia 2018, Non-MDR) of 1 µg/mL (≈ 2.08 µM) and an MIC (A. baumannii IHMA 1814276, Lebanon 2018, MDR) of 2 µg/mL (≈ 4.15 µM). It also gave an MIC (A. baumannii IHMA 1815198, Kuwait 2018, MDR) of 2 µg/mL (≈ 4.15 µM), an MIC (A. baumannii IHMA 1815856, Israel 2018, MDR) of 2 µg/mL (≈ 4.15 µM) and an MIC (A. baumannii IHMA 1821468, South Africa 2018, Non-MDR) of 2 µg/mL (≈ 4.15 µM). It also gave an MIC (A. baumannii IHMA 1829500, Georgia 2018, Non-MDR) of 2 µg/mL (≈ 4.15 µM), an MIC (A. baumannii IHMA 1830924, United Kingdom 2018, Non-MDR) of 4 µg/mL (≈ 8.31 µM) and an MIC (A. baumannii IHMA 1849819, Kuwait 2018, MDR) of 4 µg/mL (≈ 8.31 µM). For the same compound, the MIC (A. baumannii IHMA 1849829, Kuwait 2018, Non-MDR) was 4 µg/mL (≈ 8.31 µM), the MIC (A. baumannii IHMA 1857118, Slovenia 2018, Non-MDR) was 4 µg/mL (≈ 8.31 µM) and the MIC (A. baumannii IHMA 1863631, France 2018, Non-MDR) was 2 µg/mL (≈ 4.15 µM). The MIC (A. baumannii IHMA 1870054, United States 2018, Non-MDR) was 2 µg/mL (≈ 4.15 µM), the MIC (A. baumannii IHMA 1884428, Italy 2018, Non-MDR) was 4 µg/mL (≈ 8.31 µM) and the MIC (A. baumannii IHMA 1884990, Germany 2018, Non-MDR) was 1 µg/mL (≈ 2.08 µM). It also gave an MIC (A. baumannii IHMA 1900538, Turkey 2018, Non-MDR) of 4 µg/mL (≈ 8.31 µM), an MIC (A. baumannii IHMA 1913773, Kenya 2018, Non-MDR) of 2 µg/mL (≈ 4.15 µM) and an MIC (A. baumannii IHMA 1926285, Qatar 2018, Non-MDR) of 2 µg/mL (≈ 4.15 µM). It also gave an MIC (A. baumannii IHMA 1926288, Qatar 2018, MDR) of 1 µg/mL (≈ 2.08 µM), an MIC (A. baumannii IHMA 1957343, Portugal 2019, Non-MDR) of 4 µg/mL (≈ 8.31 µM) and an MIC (A. baumannii IHMA 1963732, Turkey 2019, MDR) of 2 µg/mL (≈ 4.15 µM). For the same compound, the MIC (A. baumannii IHMA 1967860, Spain 2019, Non-MDR) was 8 µg/mL (≈ 16.6 µM), the MIC (A. baumannii IHMA 1971673, Latvia 2019, MDR) was 2 µg/mL (≈ 4.15 µM) and the MIC (A. baumannii IHMA 1975075, Israel 2019, Non-MDR) was 2 µg/mL (≈ 4.15 µM). It also gave an MIC (A. baumannii IHMA 1977077, Kuwait 2019, Non-MDR) of 4 µg/mL (≈ 8.31 µM), an MIC (A. baumannii IHMA 1983151, Greece 2019, MDR) of 2 µg/mL (≈ 4.15 µM) and an MIC (A. baumannii IHMA 1984665, Lithuania 2019, MDR) of 2 µg/mL (≈ 4.15 µM). It also gave an MIC (A. baumannii IHMA 1986678, Turkey 2019, Non-MDR) of 4 µg/mL (≈ 8.31 µM), an MIC (A. baumannii IHMA 1986738, Turkey 2019, MDR) of 2 µg/mL (≈ 4.15 µM) and an MIC (A. baumannii IHMA 1987162, Croatia 2019, MDR) of 2 µg/mL (≈ 4.15 µM). For the same compound, the MIC (A. baumannii IHMA 1993615, Turkey 2019, MDR) was 1 µg/mL (≈ 2.08 µM), the MIC (A. baumannii IHMA 1994284, Italy 2019, MDR) was 2 µg/mL (≈ 4.15 µM) and the MIC (A. baumannii IHMA 1995161, Czech Republic 2019, Non-MDR) was 2 µg/mL (≈ 4.15 µM). For the same compound, the MIC (A. baumannii IHMA 1997936, Morocco 2019, Non-MDR) was 2 µg/mL (≈ 4.15 µM), the MIC (A. baumannii IHMA 1999178, Belgium 2019, Non-MDR) was 2 µg/mL (≈ 4.15 µM) and the MIC (A. baumannii IHMA 2003279, Turkey 2019, MDR) was 4 µg/mL (≈ 8.31 µM). The MIC (A. baumannii IHMA 2014367, Jordan 2019, Non-MDR) was 1 µg/mL (≈ 2.08 µM), the MIC (A. baumannii IHMA 2014931, South Africa 2019, Non-MDR) was 4 µg/mL (≈ 8.31 µM) and the MIC (A. baumannii IHMA 2019315, Romania 2019, Non-MDR) was 4 µg/mL (≈ 8.31 µM). It also gave an MIC (A. baumannii IHMA 2020360, Croatia 2019, MDR) of 2 µg/mL (≈ 4.15 µM), an MIC (A. baumannii IHMA 2031511, Greece 2019, Non-MDR) of 1 µg/mL (≈ 2.08 µM) and an MIC (A. baumannii IHMA 2031524, Greece 2019, MDR) of 2 µg/mL (≈ 4.15 µM). For the same compound, the MIC (A. baumannii IHMA 2034657, Tunisia 2019, Non-MDR) was 4 µg/mL (≈ 8.31 µM), the MIC (A. baumannii IHMA 2035089, Serbia 2019, MDR) was 2 µg/mL (≈ 4.15 µM) and the MIC (A. baumannii IHMA 2035134, Serbia 2019, Non-MDR) was 2 µg/mL (≈ 4.15 µM). For the same compound, the MIC (A. baumannii IHMA 2038976, Hungary 2019, MDR) was 2 µg/mL (≈ 4.15 µM), the MIC (A. baumannii IHMA 2051503, Serbia 2019, MDR) was 2 µg/mL (≈ 4.15 µM) and the MIC (A. baumannii IHMA 2058329, Slovenia 2019, Non-MDR) was 4 µg/mL (≈ 8.31 µM). It also gave an MIC (A. baumannii IHMA 2065587, France 2019, Non-MDR) of 1 µg/mL (≈ 2.08 µM), an MIC (A. baumannii IHMA 2099294, United Kingdom 2019, Non-MDR) of 2 µg/mL (≈ 4.15 µM) and an MIC (A. baumannii IHMA 2129256, Qatar 2019, Non-MDR) of 4 µg/mL (≈ 8.31 µM). It also gave an MIC (A. baumannii IHMA 2154584, Israel 2020, MDR) of 2 µg/mL (≈ 4.15 µM), an MIC (A. baumannii IHMA 2155340, Kenya 2020, MDR) of 2 µg/mL (≈ 4.15 µM) and an MIC (A. baumannii IHMA 2156634, Turkey 2020, MDR) of 2 µg/mL (≈ 4.15 µM). The MIC (A. baumannii IHMA 2156709, Turkey 2020, MDR) was 2 µg/mL (≈ 4.15 µM), the MIC (A. baumannii IHMA 2157614, Australia 2020, Non-MDR) was 4 µg/mL (≈ 8.31 µM) and the MIC (A. baumannii IHMA 2177232, Lithuania 2020, MDR) was 4 µg/mL (≈ 8.31 µM). The MIC (A. baumannii IHMA 2177489, Lithuania 2020, MDR) was 2 µg/mL (≈ 4.15 µM) and the MIC (A. baumannii IHMA 2178574, Ukraine 2020, Non-MDR) was 4 µg/mL (≈ 8.31 µM).
